Laboratory results as given in US20150189884A1, “METHODS OF CONTROLLING INSECTS” (Syngenta Participations AG, priority 2012, published 2015).
Read-outs that look alike come from different tables or passages of the source.

Tested on: Anthonomus grandis (Cotton Boll Weevil)
Experiment: Anthonomus grandis (Cotton Boll Weevil) test on sprayed cotton plants, mortality assessed
Assay type: in vivo
Details: 120 h, read-out: control (mortality assessed)
Method: Anthonomus grandis (Cotton Boll Weevil)
Cotton plants are treated (100 mL spray volume) and 10 adult weevils are added to each plant (2 replicates per concentration). 5 days after infestation the mortality is assessed. The following compounds were tested and gave at least 80% control at 50 ppm: B3, B4, C2, C3, C4, E1, E7
Compounds are tested according to the above method.

[1] = 50 ppm, cotton plants treated (100 mL spray volume), 10 adult weevils per plant, 5 days after infestation

Row | SMILES | mortality at 50 ppm [1] | mortality at 50 ppm
1 | C[C@H](NC(=O)C1CC1)c1ccc(N2CCC(c3cc(C(F)(F)F)cc(C(F)(F)F)c3)(C(F)(F)F)C2)cc1 (stereo partly drawn) [Compound B4, N-[(1S)-1-[4-[3-[3,5-bis(trifluoromethyl)phenyl]-3-(trifluoromethyl)pyrrolidin-1-yl]phenyl]ethyl]cyclopropanecarboxamide] | ≥ 80% | 
2 | C[C@H](NC(=O)C1CC1)c1ccc(C2(C(F)(F)F)CN=C(c3cc(Cl)c(Cl)c(Cl)c3)C2)cc1 (stereo partly drawn) [Compound B3, N-[(1S)-1-[4-[5-(3,4,5-trichlorophenyl)-3-(trifluoromethyl)-2,4-dihydropyrrol-3-yl]phenyl]ethyl]cyclopropanecarboxamide] | ≥ 80% | 
3 | N#Cc1cc(C2=NCC(c3cc(Cl)c(Cl)c(Cl)c3)(C(F)(F)F)C2)ccc1-n1cncn1 (centres unmarked) [Compound C2, 2-(1,2,4-triazol-1-yl)-5-[3-(3,4,5-trichlorophenyl)-3-(trifluoromethyl)-2,4-dihydropyrrol-5-yl]benzonitrile] | ≥ 80% | 
4 | CCC(=O)NC1CCc2cc(C3=NOC(c4cc(Cl)cc(Cl)c4)(C(F)(F)F)C3)ccc21 (centres unmarked) [Compound E1] |  | ≥ 80%
5 | N#Cc1cc(C2=NOC(c3cc(Cl)c(F)c(Cl)c3)(C(F)(F)F)C2)ccc1-n1cncn1 (centres unmarked) [Compound C3] |  | ≥ 80%
